From ChEMBL document CHEMBL1122959, “3-Hydroxy-3-methylglutaryl-coenzyme A reductase inhibitors. 1. Structural modification of 5-substituted 3,5-dihydroxypentanoic acids and their lactone derivatives” (J Med Chem, 1985) come the findings set out here.

pIC50: −log10 of the molar value.

In general, inhibition refers to the relative decrease from the control value, in per cent. Lower therefore signals a response near the control. Broadly, the pIC50 is the IC50 on a negative log10 scale, so that one unit is a factor of ten. High values mean a low IC50, low ones a high IC50.

Assay [1] concerns the target T1, 3-hydroxy-3-methylglutaryl-coenzyme A reductase (Rattus norvegicus) (UniProt P51639).
T1 sequence (whole entry): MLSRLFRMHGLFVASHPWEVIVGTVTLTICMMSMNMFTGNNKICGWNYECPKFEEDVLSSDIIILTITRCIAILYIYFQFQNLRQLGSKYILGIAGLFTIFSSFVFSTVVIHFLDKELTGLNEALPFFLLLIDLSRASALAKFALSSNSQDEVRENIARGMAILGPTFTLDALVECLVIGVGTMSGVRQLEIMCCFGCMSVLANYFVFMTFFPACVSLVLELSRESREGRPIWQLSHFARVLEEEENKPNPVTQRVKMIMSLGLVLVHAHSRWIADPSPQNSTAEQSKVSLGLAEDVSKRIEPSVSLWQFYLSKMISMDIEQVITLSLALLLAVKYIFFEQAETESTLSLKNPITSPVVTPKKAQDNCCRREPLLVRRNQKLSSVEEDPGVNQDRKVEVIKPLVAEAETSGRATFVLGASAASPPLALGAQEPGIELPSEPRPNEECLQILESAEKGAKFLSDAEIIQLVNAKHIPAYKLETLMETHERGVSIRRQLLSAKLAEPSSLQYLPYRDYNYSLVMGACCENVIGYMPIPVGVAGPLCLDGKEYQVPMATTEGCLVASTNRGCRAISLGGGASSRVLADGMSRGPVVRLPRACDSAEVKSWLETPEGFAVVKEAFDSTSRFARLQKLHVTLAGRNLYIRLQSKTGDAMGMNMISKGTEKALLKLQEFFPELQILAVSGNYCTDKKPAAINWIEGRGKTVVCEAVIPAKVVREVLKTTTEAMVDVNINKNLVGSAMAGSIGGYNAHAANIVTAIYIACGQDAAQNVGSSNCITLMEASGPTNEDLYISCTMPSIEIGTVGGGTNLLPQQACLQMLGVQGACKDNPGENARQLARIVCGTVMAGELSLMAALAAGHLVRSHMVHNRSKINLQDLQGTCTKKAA
Nature of the assay: Inhibitory activity against partially purified rat liver HMG CoA reductase at 4 ug/ml concentration.

Assay [2] concerns the target T1, 3-hydroxy-3-methylglutaryl-coenzyme A reductase (Rattus norvegicus). Nature of the assay: Inhibitory activity against partially purified rat liver HMG CoA reductase at 2 ug/ml concentration.
Assay [3] has the same target. Put plainly: Inhibitory activity against partially purified rat liver HMG CoA reductase at 6 ug/ml concentration.
Assay [4] shares this target. Nature of the assay: Inhibitory activity against partially purified rat liver HMG CoA reductase at 1.0 ug/ml concentration.
The target is the same in assay [5]. Nature of the assay: Inhibitory activity against partially purified rat liver HMG CoA reductase at 0.75 ug/ml concentration.
Assay [6] concerns the target T2, 3-hydroxy-3-methylglutaryl-coenzyme A reductase (Rattus norvegicus, UniProt P51639).
T2 sequence (P51639 whole entry): T1 sequence (whole entry)
Put plainly: In vitro inhibitory activity against HMG CoA reductase.

The target of assay [7] is T1, 3-hydroxy-3-methylglutaryl-coenzyme A reductase (Rattus norvegicus). Put plainly: Relative potency against HMG CoA reductase.
Assay [8] shares this target. Put plainly: Inhibitory activity against partially purified rat liver HMG CoA reductase at 0.35 ug/ml concentration.

As to `CO[C@H]1C[C@H](O)C[C@@H](/C=C/c2ccc(Cl)cc2Cl)O1`, the inhibition was 2% in assay [1], 0% in assay [2] and 4% in assay [3].
In the case of `O=C1C[C@H](O)C[C@@H](/C=C/c2cccc3ccc4ccccc4c23)O1`, the inhibition in assay [4] is 64%; in assay [5] it was 58%; in assay [8], 39%. The same compound gave a negative-log IC50 (pIC50) in assay [6] of 5.72. The Relative potency in assay [7] is 1.1.
